Values after ≈ are worked out from the molar mass of the structure shown. “Also recorded” adds a separate entry of the source. Where two headings read alike, the source gives them in different places.
What was measured:
A. baumannii AB5075 [1] = test: Biofilm formation inhibition and biofilm eradication; type: cell-based, Acinetobacter baumannii
Text: However, there was no significant difference between PGG and control with regards to biofilm promotion or inhibition at any concentration tested and no dose-response trend was noted.

A. baumannii = test: Time-kill assays with and without supplements; type: cell-based, Acinetobacter baumannii
Description: PGG antibacterial activity may be attributed to its chelation of iron. One can use a colorimetric assay to quantify binding of free iron by PGG. One can perform bioassays with iron supplementation and 2,2′-dipyridyl, a known iron chelator, as a control. To elucidate potential mechanisms of action of PGG, A. baumannii growth inhibition and time-kill assays were carried out with various supplements in combination with PGG: 0.02% oleic acid, 0.02% polysorbate 80, 1 mM iron (II) sulfate, and 1 mM iron (III) sulfate. […] Furthermore, PGG combined with oleic acid, polysorbate 80, and iron (II) sulfate treatments had roughly tenfold, 100-fold, and 1,000-fold higher CFU/mL measurements, respectively, than PGG alone at the 24 h timepoint.

Candida parapsilosis = test: Growth inhibition of Candida species; type: cell-based; conditions: Lodderomyces parapsilosis
Description: (§1) The activity of PGG was tested for growth inhibition against two susceptible strains and 6 drug resistant strains from three Candida species (Table 2). […] The activity of PGG followed a dose-response curve against tested strains. Typically the strains tested had MICs less than 2 μg/mL. Candida glabrata (AR Bank #0335) yielded the highest MIC at 8 μg/mL.

Candida glabrata = test: Growth inhibition of Candida species; type: cell-based
Description: as §1

Candida auris = test: Growth inhibition of Candida species; type: cell-based; conditions: Candidozyma auris
Description: as §1

Candida tropicalis = test: Growth inhibition of Candida species; type: cell-based; conditions: Table 2, strain AR Bank #0345
Description: as §1

Candida albicans = test: Growth inhibition of Candida species; type: cell-based
Description: as §1

ESKAPE pathogens = test: Growth inhibition of a panel of ESKAPE pathogens (overall); type: cell-based
Description: PGG was also tested against a panel of other ESKAPE pathogens: Enterococcus faecium, Staphylococcus aureus, Klebsiella pneumoniae, Pseudomonas aeruginosa, and Enterobacter cloacae.

A. baumannii AB5075 [2] = test: Resistance studies (agar plates and 21-day serial passaging); type: cell-based, Acinetobacter baumannii
Description: To test for spontaneous development of resistance to PGG, A. baumannii AB5075 was inoculated on agar plates containing PGG at 0.5×MIC, 1×MIC, and 2×MIC (128, 256, and 512 μg/mL, respectively), and a control plate containing no PGG. […] Next, evolution of resistance was tested by serial passaging A. baumannii AB5075 for 21 days in the presence of a PGG gradient, using culture from the 0.5×MIC treatment for each subsequent passage. Serial passaging with a tetracycline gradient served as a control.

A. baumannii AB5075 [3] = test: Restoration assay (iron addition to PGG-treated wells); type: cell-based, Acinetobacter baumannii; conditions: AB5075, 1 mM iron (II) or iron (III) sulfate on PGG-treated wells, 24-48 h
Description: To test for the restoration of bacterial growth after iron addition, iron (II) and iron (III) sulfate were spread at concentrations of 1 mM on PGG-treated A. baumannii AB5075 wells that had no visible colonies after 24 h of incubation. Immediately after addition of iron to the agar, all wells containing PGG obtained a purple color, increasing in darkness with increasing PGG concentration.

For `O=C(OC[C@H]1O[C@@H](OC(=O)c2cc(O)c(O)c(O)c2)[C@H](OC(=O)c2cc(O)c(O)c(O)c2)[C@@H](OC(=O)c2cc(O)c(O)c(O)c2)[C@@H]1OC(=O)c1cc(O)c(O)c(O)c1)c1cc(O)c(O)c(O)c1` [PGG, [(2R,3R,4S,5R,6S)-3,4,5,6-tetrakis[(3,4,5-trihydroxybenzoyl)oxy]oxan-2-yl]methyl 3,4,5-trihydroxybenzoate], the biofilm formation inhibition (A. baumannii AB5075 [1]; AB5075, 0.5-64 μg/mL (sub-MIC)) was “did not exhibit any antibiofilm activity”, the biofilm eradication (A. baumannii AB5075 [1]; AB5075, 2-256 μg/mL) was “did not exhibit any antibiofilm activity” and the “biofilm formation relative to vehicle (DMSO) control” value (A. baumannii AB5075 [1]; AB5075, 8-64 μg/mL, not significant) was “mild promotion of biofilm formation”. The “kind of activity in time-kill (CFU/mL curve)” value (A. baumannii; PGG alone, 256 μg/mL) was “bacteriostatic rather than bactericidal”, the “CFU/mL relative to PGG alone” value (A. baumannii; PGG combined with iron (II) sulfate, 24 h timepoint) was ~1,000 fold and the “CFU/mL relative to PGG alone” value (A. baumannii; PGG combined with oleic acid, 24 h timepoint) was “roughly tenfold”. For the same compound, the “CFU/mL relative to PGG alone” value (A. baumannii; PGG combined with polysorbate 80, 24 h timepoint) was roughly 100 fold, the IC50 (Candida parapsilosis; Table 2, strain AR Bank #0337) was 0.5 µg/mL (≈ 0.532 µM) and the MIC (Candida parapsilosis; Table 2, strain AR Bank #0337) was 1 µg/mL (≈ 1.06 µM). For the same compound, the IC50 (Candida parapsilosis; Table 3, strain AR Bank #0337) was 1 µg/mL (≈ 1.06 µM), the MIC (Candida parapsilosis; Table 3, strain AR Bank #0337) was 1 µg/mL (≈ 1.06 µM) and the IC50 (Candida parapsilosis; Table 3, strain AR Bank #0338) was 0.5 µg/mL (≈ 0.532 µM). For the same compound, the MIC (Candida parapsilosis; Table 3, strain AR Bank #0338) was 1 µg/mL (≈ 1.06 µM), the IC50 (Candida parapsilosis; Table 3, strain AR Bank #0339) was 1 µg/mL (≈ 1.06 µM) and the MIC (Candida parapsilosis; Table 3, strain AR Bank #0339) was 2 µg/mL (≈ 2.13 µM). For the same compound, the IC50 (Candida glabrata; Nakaseomyces glabratus, Table 2, strain AR Bank #0325) was 0.5 µg/mL (≈ 0.532 µM), the MIC (Candida glabrata; Nakaseomyces glabratus, Table 2, strain AR Bank #0325, read-out: MIC) was 1 µg/mL (≈ 1.06 µM) and the IC50 (Candida glabrata; Nakaseomyces glabratus, Table 3, strain AR Bank #0325) was 0.5 µg/mL (≈ 0.532 µM). For the same compound, the MIC (Candida glabrata; Nakaseomyces glabratus, Table 3, strain AR Bank #0325, read-out: MIC) was 1 µg/mL (≈ 1.06 µM), the IC50 (Candida glabrata; Nakaseomyces glabratus, Table 3, strain AR Bank #0326) was 0.25 µg/mL (≈ 0.266 µM) and the MIC (Candida glabrata; Nakaseomyces glabratus, Table 3, strain AR Bank #0326, read-out: MIC) was 0.5 µg/mL (≈ 0.532 µM). It also gave an IC50 (Candida glabrata; Nakaseomyces glabratus, Table 3, strain AR Bank #0335) of 2 µg/mL (≈ 2.13 µM), an MIC (Candida glabrata; Nakaseomyces glabratus, Table 3, strain AR Bank #0335, read-out: MIC) of 8 µg/mL (≈ 8.5 µM) and an MIC (Candida glabrata; Table 3, strain AR Bank #0335) of 8.0 µg/mL (≈ 8.5 µM). The MIC (Candida auris; Table 2, strain AR Bank #0390) was 0.25 µg/mL (≈ 0.266 µM), the IC50 (Candida auris; Table 2, strain AR Bank #0381) was 0.25 µg/mL (≈ 0.266 µM) and the MIC (Candida auris; Table 2, strain AR Bank #0381) was 0.5 µg/mL (≈ 0.532 µM). It also gave an IC50 (Candida tropicalis) of 0.25 µg/mL (≈ 0.266 µM), an MIC (Candida tropicalis) of 1 µg/mL (≈ 1.06 µM) and an IC50 (Candida albicans; Candida albicans, Table 2, strain ARMH12 (Flc^R)) of 0.5 µg/mL (≈ 0.532 µM). The MIC (Candida albicans; Candida albicans, Table 2, strain ARMH12 (Flc^R), read-out: MIC) was 1 µg/mL (≈ 1.06 µM), the IC50 (Candida albicans; Candida albicans, Table 2, strain ATCC10231) was 0.25 µg/mL (≈ 0.266 µM) and the MIC (Candida albicans; Candida albicans, Table 2, strain ATCC10231, read-out: MIC) was 0.5 µg/mL (≈ 0.532 µM). It also gave an IC50 (Candida albicans; Candida albicans, Table 3, strain ATCC90028) of 1 µg/mL (≈ 1.06 µM), an MIC (Candida albicans; Candida albicans, Table 3, strain ATCC90028, read-out: MIC) of 2 µg/mL (≈ 2.13 µM) and an MIC (Candida albicans; Table 3, strain MH12) of 1.0 µg/mL (≈ 1.06 µM). The “concentrations with activity against a wide range of pathogenic bacteria” value (ESKAPE pathogens) was no less than 64 µg/mL, the “evolution of resistance on serial passaging” value (A. baumannii AB5075 [2]; A. baumannii AB5075, 21 daily passages from the 0.5×MIC treatment) was “did not produce any resistant mutants; also recorded: remained stable; also recorded: did not stimulate any spontaneous resistance” and the “spontaneous development of resistance (colonies on agar plates)” value (A. baumannii AB5075 [2]; A. baumannii AB5075, agar with 128, 256 and 512 μg/mL, 24 h) was “no colonies appeared”. For the same compound, the MIC (A. baumannii AB5075 [2]; Acinetobacter baumannii, AB5075, read-out: Base MIC) was 256 µg/mL (≈ 272 µM) and the “restoration of bacterial growth after iron addition” value (A. baumannii AB5075 [3]) was “can be attenuated by addition of iron”.
